Experimental data from patent publication US20200354426A1 (MEDIMMUNE LIMITED, priority 2016, published 2020).
Read-outs that look alike come from different tables or passages of the source. Numbered stars: 1 amine (or outer) side, 2 acyl side, 3 side chain; on linkers, the order of the positions; unused ones are H or OH. Side chains are listed from the residue outwards. Peptide text beside a SMILES is read from it. * marks the point of attachment. γGlu = O=C(O)[C@H](CCC(=O)[*:2])N[*:1]; Palmitoyl = CCCCCCCCCCCCCCCC(=O)*

How the values were obtained:
Human GlucR = target: T1, Human GlucR (Homo sapiens, UniProt P47871); assay: cAMP activity assay in assay medium (assay 1); assay type: cell-based; settings: assay medium
T1 construct: expressed in transfected cells
T1 sequence (P47871 26-477): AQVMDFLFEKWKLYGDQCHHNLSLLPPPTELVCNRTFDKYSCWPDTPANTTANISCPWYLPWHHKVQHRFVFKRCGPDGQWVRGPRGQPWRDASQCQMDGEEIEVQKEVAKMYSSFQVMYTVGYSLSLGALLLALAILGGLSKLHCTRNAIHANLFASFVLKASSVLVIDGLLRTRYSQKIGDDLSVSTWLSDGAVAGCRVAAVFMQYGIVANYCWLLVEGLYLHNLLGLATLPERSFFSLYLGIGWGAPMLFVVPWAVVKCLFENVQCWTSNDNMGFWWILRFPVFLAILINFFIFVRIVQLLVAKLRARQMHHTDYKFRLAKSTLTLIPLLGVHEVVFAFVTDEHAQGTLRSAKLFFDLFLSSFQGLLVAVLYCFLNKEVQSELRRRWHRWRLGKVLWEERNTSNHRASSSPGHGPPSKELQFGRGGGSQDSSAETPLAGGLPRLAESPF
Excerpt: (§1) Biological Activity of Peptides in Cell-Based cAMP Activity Assay (Assay 1):
(§2) All sample dilutions were made in duplicate.

Human GLP1R = Human GLP1R (Homo sapiens, UniProt P43220); assay: cAMP activity assay in assay medium (assay 1); assay type: cell-based; parameters: expressed in transfected cells; settings: assay medium
Chain of Human GLP1R (P43220 24-463): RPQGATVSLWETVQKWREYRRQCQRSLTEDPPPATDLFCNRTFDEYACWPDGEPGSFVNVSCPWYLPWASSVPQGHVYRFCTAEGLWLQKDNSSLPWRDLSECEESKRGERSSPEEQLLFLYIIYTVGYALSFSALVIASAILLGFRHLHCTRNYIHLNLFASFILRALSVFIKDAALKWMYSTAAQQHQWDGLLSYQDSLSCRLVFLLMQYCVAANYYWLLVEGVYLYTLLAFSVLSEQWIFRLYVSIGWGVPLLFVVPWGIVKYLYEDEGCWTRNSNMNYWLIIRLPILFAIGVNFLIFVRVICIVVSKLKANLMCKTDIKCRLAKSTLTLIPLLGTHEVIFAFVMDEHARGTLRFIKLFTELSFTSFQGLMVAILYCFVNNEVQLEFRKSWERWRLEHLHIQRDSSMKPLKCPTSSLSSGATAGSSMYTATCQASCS
Excerpt: as §1, §2

| Structure (SMILES) | EC50 (Human GlucR; Table 3, C-terminal acid peptides, read-out: Human GlucR EC50) [nM] | EC50 (Human GLP1R; Table 3, C-terminal acid peptides, read-out: Human GLP1R EC50) [nM] | EC50 (Human GLP1R; Table 4, read-out: hGLP1R EC50) [nM] | EC50 (Human GlucR; Table 4, read-out: hGlucR EC50) [nM] |
| --- | --- | --- | --- | --- |
| CCCCCCCCCCCCCCCC(=O)N[C@@H](CCC(=O)NCCCC[C@H](NC(=O)[C@H](CCCCN)NC(=O)[C@H](CO)NC(=O)[C@H](Cc1ccc(O)cc1)NC(=O)[C@H](CC(=O)O)NC(=O)[C@H](CO)NC(=O)[C@@H](NC(=O)[C@H](Cc1ccccc1)NC(=O)[C@@H](NC(=O)CNC(=O)[C@H](CCC(N)=O)NC(=O)[C@H](CO)NC(=O)[C@@H](N)Cc1c[nH]cn1)[C@@H](C)O)[C@@H](C)O)C(=O)N[C@@H](CC(C)C)C(=O)N[C@@H](CC(=O)O)C(=O)N[C@@H](CO)C(=O)N[C@@H](CCC(=O)O)C(=O)N[C@@H](CCCNC(=N)N)C(=O)N[C@@H](C)C(=O)N[C@@H](CCCNC(=N)N)C(=O)N[C@@H](CC(=O)O)C(=O)N[C@@H](Cc1ccccc1)C(=O)N[C@H](C(=O)N[C@@H](C)C(=O)N[C@@H](Cc1c[nH]c2ccccc12)C(=O)N[C@@H](CC(C)C)C(=O)N[C@H](C(=O)N[C@@H](C)C(=O)NCC(=O)NCC(=O)O)C(C)C)C(C)C)C(=O)O [Peptide G931] (H-HSQGTFTSDYSKK([γGlu-Palmitoyl])LDSERARDFVAWLVAGG-OH; N-terminus assumed) | 0.0178 | 0.13 |  |  |
| CC(C)C[C@H](NC(=O)[C@H](Cc1ccc(O)cc1)NC(=O)[C@H](CCCCN)NC(=O)[C@H](CO)NC(=O)[C@H](Cc1ccc(O)cc1)NC(=O)[C@H](CC(=O)O)NC(=O)[C@H](CO)NC(=O)[C@@H](NC(=O)[C@H](Cc1ccccc1)NC(=O)[C@@H](NC(=O)CNC(=O)[C@H](CCC(N)=O)NC(=O)[C@H](CO)NC(=O)[C@@H](N)Cc1c[nH]cn1)[C@@H](C)O)[C@@H](C)O)C(=O)N[C@@H](CC(=O)O)C(=O)N[C@@H](CO)C(=O)N[C@@H](CCCNC(=N)N)C(=O)N[C@@H](CCCNC(=N)N)C(=O)N[C@@H](C)C(=O)N[C@@H](CCC(N)=O)C(=O)N[C@@H](CC(=O)O)C(=O)N[C@@H](Cc1ccccc1)C(=O)N[C@H](C(=O)N[C@@H](CCC(N)=O)C(=O)N[C@@H](Cc1c[nH]c2ccccc12)C(=O)N[C@@H](CC(C)C)C(=O)N[C@H](C(=O)N[C@@H](CCCNC(=N)N)C(=O)NCC(=O)NCC(=O)NCC(=O)NCC(=O)NCC(=O)NCC(=O)N[C@@H](CCCCN)C(N)=O)C(C)C)C(C)C [g325] |  |  |  | 0.0103 |
| CCCCCCCCCCCCCCCC(=O)N[C@@H](CCC(=O)NCCCC[C@H](NC(=O)[C@H](CO)NC(=O)[C@H](Cc1ccc(O)cc1)NC(=O)[C@H](CC(=O)O)NC(=O)[C@H](CO)NC(=O)[C@@H](NC(=O)[C@H](Cc1ccccc1)NC(=O)[C@@H](NC(=O)CNC(=O)[C@H](CCC(N)=O)NC(=O)CNC(=O)[C@@H](N)Cc1c[nH]cn1)[C@@H](C)O)[C@@H](C)O)C(=O)N[C@@H](Cc1ccc(O)cc1)C(=O)N[C@@H](CC(C)C)C(=O)N[C@@H](CC(=O)O)C(=O)N[C@@H](CO)C(=O)N[C@@H](CCC(=O)O)C(=O)N[C@@H](CCCNC(=N)N)C(=O)N[C@@H](C)C(=O)N[C@@H](CCC(N)=O)C(=O)N[C@@H](CC(=O)O)C(=O)N[C@@H](Cc1ccccc1)C(=O)N[C@H](C(=O)N[C@@H](CCC(N)=O)C(=O)N[C@@H](Cc1c[nH]c2ccccc12)C(=O)N[C@@H](CC(C)C)C(=O)N[C@@H](CCC(=O)O)C(=O)N[C@@H](CCCNC(=N)N)C(=O)NCC(=O)NCC(N)=O)C(C)C)C(=O)O [g701] (H-HGQGTFTSDYSK([γGlu-Palmitoyl])YLDSERAQDFVQWLERGG-NH2; N-terminus assumed) |  |  | 7.4 | 3.83 |
| CCCCCCCCCCCCCCCC(=O)N[C@@H](CCC(=O)NCCCC[C@H](NC(=O)[C@H](CO)NC(=O)[C@H](Cc1ccc(O)cc1)NC(=O)[C@H](CC(=O)O)NC(=O)[C@H](CO)NC(=O)[C@@H](NC(=O)[C@H](Cc1ccccc1)NC(=O)[C@@H](NC(=O)CNC(=O)[C@H](CCC(N)=O)NC(=O)[C@H](CO)NC(=O)[C@@H](N)Cc1c[nH]cn1)[C@@H](C)O)[C@@H](C)O)C(=O)N[C@@H](Cc1ccc(O)cc1)C(=O)N[C@@H](CC(C)C)C(=O)N[C@@H](CC(=O)O)C(=O)N[C@@H](CO)C(=O)N[C@@H](CCC(=O)O)C(=O)N[C@@H](CCCNC(=N)N)C(=O)N[C@@H](C)C(=O)N[C@@H](CCC(N)=O)C(=O)N[C@@H](CC(=O)O)C(=O)N[C@@H](Cc1ccccc1)C(=O)N[C@H](C(=O)N[C@@H](CCC(N)=O)C(=O)N[C@@H](Cc1c[nH]c2ccccc12)C(=O)N[C@@H](CC(C)C)C(=O)N[C@H](C(=O)N[C@@H](C)C(=O)NCC(=O)NCC(N)=O)C(C)C)C(C)C)C(=O)O [g702] (H-HSQGTFTSDYSK([γGlu-Palmitoyl])YLDSERAQDFVQWLVAGG-NH2; N-terminus assumed) |  |  | 3.35 | 1.49 |

Next, values leading:

| EC50 (Human GlucR; Table 3, C-terminal acid peptides, read-out: Human GlucR EC50) [nM] | EC50 (Human GLP1R; Table 3, C-terminal acid peptides, read-out: Human GLP1R EC50) [nM] | EC50 (Human GLP1R; Table 4, read-out: hGLP1R EC50) [nM] | EC50 (Human GlucR; Table 4, read-out: hGlucR EC50) [nM] | Structure (SMILES) |
| --- | --- | --- | --- | --- |
|  |  | 2.63 |  | CC(C)C[C@H](NC(=O)[C@H](Cc1ccc(O)cc1)NC(=O)[C@H](CCCCN)NC(=O)[C@H](CO)NC(=O)[C@H](Cc1ccc(O)cc1)NC(=O)[C@H](CC(=O)O)NC(=O)[C@H](CO)NC(=O)[C@@H](NC(=O)[C@H](Cc1ccccc1)NC(=O)[C@@H](NC(=O)CNC(=O)[C@H](CCC(N)=O)NC(=O)[C@H](CO)NC(=O)[C@@H](N)Cc1c[nH]cn1)[C@@H](C)O)[C@@H](C)O)C(=O)N[C@@H](CC(=O)O)C(=O)N[C@@H](CO)C(=O)N[C@@H](CCCNC(=N)N)C(=O)N[C@@H](CCCNC(=N)N)C(=O)N[C@@H](C)C(=O)N[C@@H](CCC(N)=O)C(=O)N[C@@H](CC(=O)O)C(=O)N[C@@H](Cc1ccccc1)C(=O)N[C@H](C(=O)N[C@@H](CCC(N)=O)C(=O)N[C@@H](Cc1c[nH]c2ccccc12)C(=O)N[C@@H](CC(C)C)C(=O)N[C@H](C(=O)N[C@@H](CCCNC(=N)N)C(=O)NCC(=O)NCC(=O)N[C@@H](CO)C(=O)N[C@@H](CO)C(=O)NCC(=O)NCC(=O)N[C@@H](CO)C(=O)N[C@@H](CO)C(=O)N[C@@H](CCCCN)C(N)=O)C(C)C)C(C)C [g317] |
|  |  | 1.14 | 9.04 | CCCCCCCCCCCCCCCC(=O)NCCCC[C@H](NC(=O)[C@H](CO)NC(=O)[C@H](CO)NC(=O)CNC(=O)CNC(=O)[C@H](CO)NC(=O)[C@H](CO)NC(=O)CNC(=O)CNC(=O)[C@H](CCCNC(=N)N)NC(=O)[C@@H](NC(=O)[C@H](CC(C)C)NC(=O)[C@H](Cc1c[nH]c2ccccc12)NC(=O)[C@H](CCC(N)=O)NC(=O)[C@@H](NC(=O)[C@H](Cc1ccccc1)NC(=O)[C@H](CC(=O)O)NC(=O)[C@H](CCC(N)=O)NC(=O)[C@H](C)NC(=O)[C@H](CCCNC(=N)N)NC(=O)[C@H](CCCNC(=N)N)NC(=O)[C@H](CO)NC(=O)[C@H](CC(=O)O)NC(=O)[C@H](CC(C)C)NC(=O)[C@H](Cc1ccc(O)cc1)NC(=O)[C@H](CCCCN)NC(=O)[C@H](CO)NC(=O)[C@H](Cc1ccc(O)cc1)NC(=O)[C@H](CC(=O)O)NC(=O)[C@H](CO)NC(=O)[C@@H](NC(=O)[C@H](Cc1ccccc1)NC(=O)[C@@H](NC(=O)CNC(=O)[C@H](CCC(N)=O)NC(=O)[C@H](CO)NC(=O)[C@@H](N)Cc1c[nH]cn1)[C@@H](C)O)[C@@H](C)O)C(C)C)C(C)C)C(N)=O [g318] |
|  |  | 0.0857 | 0.0596 | CC(C)C[C@H](NC(=O)[C@H](Cc1ccc(O)cc1)NC(=O)[C@H](CCCCN)NC(=O)[C@H](CO)NC(=O)[C@H](Cc1ccc(O)cc1)NC(=O)[C@H](CC(=O)O)NC(=O)[C@H](CO)NC(=O)[C@@H](NC(=O)[C@H](Cc1ccccc1)NC(=O)[C@@H](NC(=O)CNC(=O)[C@H](CCC(N)=O)NC(=O)[C@H](CO)NC(=O)[C@@H](N)Cc1c[nH]cn1)[C@@H](C)O)[C@@H](C)O)C(=O)N[C@@H](CC(=O)O)C(=O)N[C@@H](CO)C(=O)N[C@@H](CCCNC(=N)N)C(=O)N[C@@H](CCCNC(=N)N)C(=O)N[C@@H](C)C(=O)N[C@@H](CCC(N)=O)C(=O)N[C@@H](CC(=O)O)C(=O)N[C@@H](Cc1ccccc1)C(=O)N[C@H](C(=O)N[C@@H](CCC(N)=O)C(=O)N[C@@H](Cc1c[nH]c2ccccc12)C(=O)N[C@@H](CC(C)C)C(=O)N[C@H](C(=O)N[C@@H](CCCNC(=N)N)C(=O)NCC(=O)NCC(=O)N[C@@H](CO)C(=O)NCC(=O)N[C@@H](CO)C(=O)NCC(=O)N[C@@H](CO)C(=O)NCC(N)=O)C(C)C)C(C)C [g402] |
|  |  | 0.0143 | 0.195 | CCCCCCCCCCCCCCCC(=O)NCCCCCC(=O)NCCCC[C@H](NC(=O)[C@H](CO)NC(=O)[C@H](CC(=O)O)NC(=O)[C@H](CC(C)C)NC(=O)[C@H](Cc1ccc(O)cc1)NC(=O)[C@H](CCC(=O)O)NC(=O)[C@H](CO)NC(=O)[C@H](Cc1ccc(O)cc1)NC(=O)[C@H](CC(=O)O)NC(=O)[C@H](CO)NC(=O)[C@@H](NC(=O)[C@H](Cc1ccccc1)NC(=O)[C@@H](NC(=O)CNC(=O)[C@H](CCC(N)=O)NC(=O)CNC(=O)[C@@H](N)Cc1c[nH]cn1)[C@@H](C)O)[C@@H](C)O)C(=O)N[C@@H](CCCNC(=N)N)C(=O)N[C@@H](C)C(=O)N[C@@H](CCCNC(=N)N)C(=O)N[C@@H](CC(=O)O)C(=O)N[C@@H](Cc1ccccc1)C(=O)N[C@H](C(=O)N[C@@H](CCC(=O)O)C(=O)N[C@@H](Cc1c[nH]c2ccccc12)C(=O)N[C@@H](CC(C)C)C(=O)N[C@@H](CCC(=O)O)C(=O)N[C@@H](CCCNC(=N)N)C(=O)NCC(=O)NCC(N)=O)C(C)C [g682] |
|  |  | 0.0534 | 0.352 | CCCCCCCCCCCCCCCC(=O)N[C@@H](CCC(=O)NCCCC[C@H](NC(=O)[C@H](CO)NC(=O)[C@H](CC(=O)O)NC(=O)[C@H](CC(C)C)NC(=O)[C@H](Cc1ccc(O)cc1)NC(=O)[C@H](CCCNC(=N)N)NC(=O)[C@H](CO)NC(=O)[C@H](Cc1ccc(O)cc1)NC(=O)[C@H](CC(=O)O)NC(=O)[C@H](CO)NC(=O)[C@@H](NC(=O)[C@H](Cc1ccccc1)NC(=O)[C@@H](NC(=O)CNC(=O)[C@H](CCC(N)=O)NC(=O)CNC(=O)[C@@H](N)Cc1c[nH]cn1)[C@@H](C)O)[C@@H](C)O)C(=O)N[C@@H](CCCNC(=N)N)C(=O)N[C@@H](C)C(=O)N[C@@H](CCCNC(=N)N)C(=O)N[C@@H](CC(=O)O)C(=O)N[C@@H](Cc1ccccc1)C(=O)N[C@H](C(=O)N[C@@H](CCC(=O)O)C(=O)N[C@@H](Cc1c[nH]c2ccccc12)C(=O)N[C@@H](CC(C)C)C(=O)N[C@H](C(=O)N[C@@H](C)C(=O)NCC(=O)NCC(N)=O)C(C)C)C(C)C)C(=O)O [g720] (H-HGQGTFTSDYSRYLDSK([γGlu-Palmitoyl])RARDFVEWLVAGG-NH2; N-terminus assumed) |
